Data on 18 compounds can be found in ChEMBL document CHEMBL2407043, “Hydantoin based inhibitors of MMP13--discovery of AZD6605” (Bioorg Med Chem Lett, 2013).

A short description of data set [1]: Thermodynamic solubility of the compound in phosphate buffer at pH 7.4 at 25 degC after 24 hrs. To be noted: read-out: Therm_solubility.
The next data set has as its target Cytochrome P450 2C9 (Homo sapiens, UniProt P11712). The data set is described as follows: Inhibition of human CYP2C9. The class given is ADME.
Data set [2] can be described thus: Volume of distribution at steady state in rat at 2 mg/kg, iv and 5 mg/kg, po. To be noted: in vivo, read-out: Vdss. The class given is ADME, organism-based.
The target of data set [3] is Matrix metalloproteinase-14 (Homo sapiens, UniProt P50281).
The nature of data set [4]: Clearance in rat at 2 mg/kg, iv and 5 mg/kg, po. The class given is ADME, organism-based. To be noted: in vivo.
Data set [5] can be described thus: Half life in dog at 0.5 mg/kg, iv and 1 mg/kg, po. The class given is ADME, organism-based, Canis lupus familiaris. Particulars: in vivo.
A short description of data set [6]: Volume of distribution at steady state in dog at 0.5 mg/kg, iv and 1 mg/kg, po. The class given is ADME, organism-based, Canis lupus familiaris. Particulars: in vivo, read-out: Vdss.
Another data set deals with Cytochrome P450 2C19 (Homo sapiens, UniProt P33261). The experiment in a line: Inhibition of human CYP2C19. The class given is ADME.
Sequence of Cytochrome P450 2C19 (P33261 whole entry): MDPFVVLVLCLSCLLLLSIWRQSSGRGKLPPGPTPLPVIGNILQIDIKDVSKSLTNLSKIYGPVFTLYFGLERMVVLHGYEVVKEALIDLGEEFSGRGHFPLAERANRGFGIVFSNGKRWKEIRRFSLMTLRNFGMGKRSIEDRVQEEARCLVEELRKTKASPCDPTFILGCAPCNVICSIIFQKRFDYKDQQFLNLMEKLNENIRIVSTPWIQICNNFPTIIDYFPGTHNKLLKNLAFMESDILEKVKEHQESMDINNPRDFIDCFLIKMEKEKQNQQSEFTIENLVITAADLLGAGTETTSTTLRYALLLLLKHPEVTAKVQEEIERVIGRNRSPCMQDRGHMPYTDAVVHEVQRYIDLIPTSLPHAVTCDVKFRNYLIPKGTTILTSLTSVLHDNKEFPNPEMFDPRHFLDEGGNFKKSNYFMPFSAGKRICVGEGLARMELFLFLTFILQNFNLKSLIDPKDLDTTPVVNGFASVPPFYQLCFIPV
A further data set concerns the target Cytochrome P450 2D6 (Homo sapiens, UniProt P10635). The experiment in a line: Inhibition of human CYP2D6. The class given is ADME.
Data set [7] in a line: Oral bioavailability in dog at 1 mg/kg. The class given is ADME, organism-based, Canis lupus familiaris. Particulars: in vivo.
Data set [8] can be described thus: Half life in rat at 2 mg/kg, iv and 5 mg/kg, po. The class given is ADME, organism-based. To be noted: in vivo.
The target of the next data set is Cytochrome P450 3A4 (Homo sapiens, UniProt P08684). The experiment in a line: Inhibition of human CYP3A4. The class given is ADME.
Sequence of Cytochrome P450 3A4 (P08684 whole entry): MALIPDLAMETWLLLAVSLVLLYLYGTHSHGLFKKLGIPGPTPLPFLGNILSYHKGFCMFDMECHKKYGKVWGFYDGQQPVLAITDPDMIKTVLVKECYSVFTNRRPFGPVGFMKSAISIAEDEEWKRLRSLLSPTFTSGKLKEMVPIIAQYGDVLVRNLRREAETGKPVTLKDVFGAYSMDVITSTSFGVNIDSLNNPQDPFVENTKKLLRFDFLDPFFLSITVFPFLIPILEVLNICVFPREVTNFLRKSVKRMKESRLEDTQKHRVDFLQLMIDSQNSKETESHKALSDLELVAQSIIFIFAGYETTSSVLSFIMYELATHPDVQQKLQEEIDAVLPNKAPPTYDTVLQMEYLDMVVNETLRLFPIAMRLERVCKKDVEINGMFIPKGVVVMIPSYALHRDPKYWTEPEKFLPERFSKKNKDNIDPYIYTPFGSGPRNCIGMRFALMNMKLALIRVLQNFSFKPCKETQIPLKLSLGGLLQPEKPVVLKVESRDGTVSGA
The next data set deals with T1, Cytochrome P450 1A2 (Homo sapiens, UniProt P05177).
T1 sequence (P05177 whole entry): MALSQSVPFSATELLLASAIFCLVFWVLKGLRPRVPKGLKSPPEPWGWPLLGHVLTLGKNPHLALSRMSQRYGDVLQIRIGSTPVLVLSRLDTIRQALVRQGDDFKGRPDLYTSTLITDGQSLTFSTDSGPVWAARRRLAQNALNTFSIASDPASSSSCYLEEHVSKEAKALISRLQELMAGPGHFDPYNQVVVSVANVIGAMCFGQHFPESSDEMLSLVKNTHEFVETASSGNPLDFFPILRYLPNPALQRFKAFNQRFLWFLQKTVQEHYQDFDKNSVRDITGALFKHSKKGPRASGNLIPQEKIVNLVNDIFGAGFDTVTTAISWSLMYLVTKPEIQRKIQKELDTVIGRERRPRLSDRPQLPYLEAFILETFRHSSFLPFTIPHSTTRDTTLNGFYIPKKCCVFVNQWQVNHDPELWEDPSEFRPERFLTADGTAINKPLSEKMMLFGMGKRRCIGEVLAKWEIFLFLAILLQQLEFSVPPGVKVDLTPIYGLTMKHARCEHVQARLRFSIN
The data set is described as follows: Inhibition of human CYP1A2. The class given is ADME.

The nature of data set [9]: Oral bioavailability in rat at 5 mg/kg. It is filed as ADME, organism-based. To be noted: in vivo.
The nature of data set [10]: Clearance in dog at 0.5 mg/kg, iv and 1 mg/kg, po. It is filed as ADME, organism-based, Canis lupus familiaris. To be noted: in vivo.
Data set [11] in a line: Half life in rat. It is filed as ADME, organism-based. To be noted: in vivo.
A short description of data set [12]: Clearance in rat at 2 mg/kg, iv. It is filed as ADME, organism-based. More on the design: dose 2 mg/kg, route intravenous. Particulars: in vivo.
A further data set is described as follows: in vitro. Particulars: human, liver microsomes. In general terms: Liver microsomes are vesicles of endoplasmic reticulum, rich in cytochrome P450 enzymes.
Data set [13] in a line: Oral bioavailability in rat at 3 to 10 mg/kg. It is filed as ADME, organism-based. Particulars: in vivo.
The nature of data set [14]: Elimination half life in dog. To be noted: in vivo, read-out: beta t1/2 (converted). The class given is ADME, organism-based, Canis lupus familiaris.
A short description of data set [15]: Elimination half life in mouse. It is filed as ADME, organism-based. Particulars: in vivo, read-out: beta t1/2 (converted).
Data set [16] can be described thus: Elimination half life in rat. Particulars: in vivo, read-out: beta t1/2 (converted). The class given is ADME, organism-based.
Data set [17] has as its target Macrophage metalloelastase (Homo sapiens, UniProt P39900). The experiment in a line: Inhibition of MMP-12 (unknown origin) by fluorescence assay.

The term IC50 denotes the concentration that gives 50% inhibition. Higher therefore signals lower potency. In general, bioavailability refers to dose-corrected exposure relative to a reference, in per cent. Usually microsomal CLint stands for a measure of how fast metabolising enzymes remove a compound, apart from limits set by blood flow. A high value points to rapid turnover.

Converted amounts (≈) assume the structure as drawn. Where only a bound is given, the exact number is not on record here.

Sequence of Macrophage metalloelastase (P39900 whole entry): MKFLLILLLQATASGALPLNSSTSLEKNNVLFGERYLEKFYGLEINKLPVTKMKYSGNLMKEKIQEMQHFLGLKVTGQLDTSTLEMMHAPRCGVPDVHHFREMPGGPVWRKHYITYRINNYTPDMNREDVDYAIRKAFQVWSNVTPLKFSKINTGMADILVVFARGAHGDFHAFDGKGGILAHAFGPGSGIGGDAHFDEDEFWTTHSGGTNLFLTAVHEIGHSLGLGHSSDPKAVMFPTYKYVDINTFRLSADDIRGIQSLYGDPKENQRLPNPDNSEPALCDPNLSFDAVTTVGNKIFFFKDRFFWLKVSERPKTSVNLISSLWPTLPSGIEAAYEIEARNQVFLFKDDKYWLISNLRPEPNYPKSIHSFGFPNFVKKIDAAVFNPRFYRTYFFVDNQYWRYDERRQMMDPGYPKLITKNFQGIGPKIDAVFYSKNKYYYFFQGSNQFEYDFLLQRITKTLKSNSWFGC
Sequence of Cytochrome P450 2D6 (P10635 whole entry): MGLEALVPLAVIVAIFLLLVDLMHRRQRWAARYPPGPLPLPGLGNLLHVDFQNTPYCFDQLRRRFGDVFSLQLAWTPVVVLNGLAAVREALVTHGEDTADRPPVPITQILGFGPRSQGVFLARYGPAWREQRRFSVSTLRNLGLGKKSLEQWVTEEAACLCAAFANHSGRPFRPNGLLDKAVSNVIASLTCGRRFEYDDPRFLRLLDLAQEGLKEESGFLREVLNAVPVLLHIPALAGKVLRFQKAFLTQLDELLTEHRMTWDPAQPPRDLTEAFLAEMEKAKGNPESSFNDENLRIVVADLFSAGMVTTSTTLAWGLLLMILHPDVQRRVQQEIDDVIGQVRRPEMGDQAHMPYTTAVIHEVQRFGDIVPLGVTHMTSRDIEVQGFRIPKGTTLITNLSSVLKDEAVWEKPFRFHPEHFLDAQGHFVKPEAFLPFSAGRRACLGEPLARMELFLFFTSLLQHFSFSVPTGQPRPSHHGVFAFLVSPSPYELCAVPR
Sequence of Cytochrome P450 2C9 (P11712 whole entry): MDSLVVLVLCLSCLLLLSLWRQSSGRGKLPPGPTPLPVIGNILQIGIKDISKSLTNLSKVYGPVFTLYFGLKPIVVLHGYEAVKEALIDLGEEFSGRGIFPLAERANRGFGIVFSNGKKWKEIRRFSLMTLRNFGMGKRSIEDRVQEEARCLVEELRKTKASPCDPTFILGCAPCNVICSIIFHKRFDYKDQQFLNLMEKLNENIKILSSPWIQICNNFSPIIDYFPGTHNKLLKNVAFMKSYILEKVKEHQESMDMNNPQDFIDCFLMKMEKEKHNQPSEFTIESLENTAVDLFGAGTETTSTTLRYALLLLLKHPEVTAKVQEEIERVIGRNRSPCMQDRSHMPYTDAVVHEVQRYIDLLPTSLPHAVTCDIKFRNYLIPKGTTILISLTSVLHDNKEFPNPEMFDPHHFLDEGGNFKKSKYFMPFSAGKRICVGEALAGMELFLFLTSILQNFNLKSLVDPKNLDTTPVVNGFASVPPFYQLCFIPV

As for `C[C@]1(CS(=O)(=O)N2CCC(Oc3ccc(OCc4ccncc4)cc3)CC2)NC(=O)NC1=O`, the solubility thermodynamic at 24 h in data set [1] was found to be 130 µM (≈ 61.7 µg/mL).

As for `C[C@]1(CS(=O)(=O)N2CCC(Oc3ccc(OCc4cccnc4)cc3)CC2)NC(=O)NC1=O`, in data set [1], the solubility thermodynamic at 24 h worked out at 8.4 µM (≈ 3.99 µg/mL).

For the compound `C[C@]1(CS(=O)(=O)N2CCC(Oc3ccc(OCc4ccccn4)cc3)CC2)NC(=O)NC1=O`, the IC50 is more than 10000 nM against Cytochrome P450 2C9; 6900 nM in data set [3]; more than 10000 nM against Cytochrome P450 2C19; more than 10000 nM against Cytochrome P450 2D6; more than 10000 nM against Cytochrome P450 3A4; more than 10000 nM against Cytochrome P450 1A2. The Vd in data set [2] turned out to be 0.8 L/kg; in data set [6], 0.6 L/kg. The clearance turned out to be 17 mL/min/kg in data set [4] and 3 mL/min/kg in data set [10]. Further, the half-life is 2.3 h in [5] and 2.5 h in data set [8]. The bioavailability in data set [7] is 51%; in data set [9], 35%. Besides, the solubility thermodynamic at 24 h in data set [1] was 20 µM (≈ 9.49 µg/mL).

`C[C@]1(CS(=O)(=O)N2CCC(Oc3ccc(OCc4cscn4)cc3)CC2)NC(=O)NC1=O` displayed an IC50 in [3] of 4090 nM. Also, the solubility thermodynamic at 24 h in data set [1] turned out to be 87 µM (≈ 41.8 µg/mL).

With `C[C@]1(CS(=O)(=O)N2CCC(Oc3ccc(OCc4cnsn4)cc3)CC2)NC(=O)NC1=O`, in [3], half-maximal inhibition (IC50) required 350 nM. Also, the solubility thermodynamic at 24 h in data set [1] is 28 µM (≈ 13.5 µg/mL).

Compound `C[C@]1(CS(=O)(=O)N2CCC(Oc3ccc(OCc4ccc(C(F)(F)F)o4)cc3)CC2)NC(=O)NC1=O` returned an IC50 in data set [3] of 1860 nM.

For the compound `C[C@]1(CS(=O)(=O)N2CCN(c3ncc(OCc4ccc(F)cc4)cn3)CC2)NC(=O)NC1=O`, the half-life in data set [11] was 1.9 h. In data set [2], the Vd stood at 0.5 L/kg. Also, in data set [12], the clearance turned out to be 4.8 mL/min/kg. This compound also came in with a microsomal CLint in “in vitro” of 16 µL/min/mg. In data set [1], the solubility thermodynamic at 24 h stood at 16 µM (≈ 7.66 µg/mL).

With `C[C@]1(CS(=O)(=O)N2CCN(c3ncc(OCc4cccc(C#N)c4)cn3)CC2)NC(=O)NC1=O`, the half-life was 7.5 h in data set [11], 5.4 h in [14], 5.8 h in [15] and 7.5 h in data set [16]. This compound also displayed a bioavailability in [13] of 51%. The Vd in data set [2] amounted to 0.5 L/kg. The compound further showed a clearance in data set [12] of 18.1 mL/min/kg. The same compound registered an intrinsic metabolic clearance (microsomal CLint) in the data set “in vitro” of less than 2 µL/min/mg. For the same compound, the solubility thermodynamic at 24 h in data set [1] is 66 µM (≈ 32 µg/mL).

As to `C[C@]1(CS(=O)(=O)N2CCN(c3ncc(OCc4ccc(S(C)(=O)=O)cc4)cn3)CC2)NC(=O)NC1=O`, the solubility thermodynamic at 24 h in [1] stood at 1 µM (≈ 0.539 µg/mL).

`C[C@]1(CS(=O)(=O)N2CCC(Oc3ccc(F)cc3)CC2)NC(=O)NC1=O` yielded an IC50 in [17] of 23.7 nM. Besides, the solubility thermodynamic at 24 h in data set [1] amounted to 52 µM (≈ 20 µg/mL).

As to `CCOc1ccc(OC2CCN(S(=O)(=O)C[C@@]3(C)NC(=O)NC3=O)CC2)cc1`, the IC50 in [17] is 2 nM; in data set [3], 2820 nM. The solubility thermodynamic at 24 h in [1] came to 15 µM (≈ 6.17 µg/mL).

Regarding `C[C@]1(CS(=O)(=O)N2CCC(Oc3ccc(OC(F)(F)F)cc3)CC2)NC(=O)NC1=O`, the IC50 is 3.3 nM in data set [17] and 9500 nM in data set [3]. In addition, the solubility thermodynamic at 24 h in data set [1] was found to be 18 µM (≈ 8.13 µg/mL).

`C[C@]1(CS(=O)(=O)N2CCC(Oc3ccc(OCC(F)(F)F)cc3)CC2)NC(=O)NC1=O` registered an IC50 in data set [3] of 1950 nM. For the same compound, the solubility thermodynamic at 24 h in [1] turned out to be 34 µM (≈ 15.8 µg/mL).

In the case of `C[C@]1(CS(=O)(=O)N2CCC(Oc3ccc(OCCC(F)(F)F)cc3)CC2)NC(=O)NC1=O`, half-maximal inhibition in data set [3] (IC50) required 3120 nM. Further, in data set [1], the solubility thermodynamic at 24 h turned out to be 110 µM (≈ 52.7 µg/mL).

On to `C[C@]1(CS(=O)(=O)N2CCC(Oc3ccc(OCC(F)(F)C(F)(F)F)cc3)CC2)NC(=O)NC1=O`, for which half-maximal inhibition in [3] (IC50) was put at 4740 nM. The solubility thermodynamic at 24 h in data set [1] was determined as 4.4 µM (≈ 2.27 µg/mL).

`C[C@]1(CS(=O)(=O)N2CCC(Oc3ccc(OCC(F)(F)C(F)F)cc3)CC2)NC(=O)NC1=O` displayed an IC50 in data set [3] of 553 nM. In addition, the solubility thermodynamic at 24 h in data set [1] came to 32 µM (≈ 15.9 µg/mL).

Regarding `C[C@]1(CS(=O)(=O)N2CCC(Oc3ccc(OC(F)(F)C(F)(F)F)cc3)CC2)NC(=O)NC1=O`, in data set [3], the half-inhibitory concentration (IC50) is more than 10000 nM. Besides, the solubility thermodynamic at 24 h in data set [1] was less than 2 µM.

On to `C[C@]1(CS(=O)(=O)N2CCC(Oc3ccc(Cl)cc3)CC2)NC(=O)NC1=O`, for which the IC50 in data set [17] came out at 8.9 nM. The solubility thermodynamic at 24 h in [1] was determined as 12 µM (≈ 4.82 µg/mL).
